Assay results as given in patent publication US9751832B2, “Selective histone deactylase 6 inhibitors” (H. LEE MOFFITT CANCER CENTER AND RESEARCH INSTITUTE, INC., priority 2013, dated 2017).
Read-outs that look alike come from different tables or passages of the source.

Legend:
HDAC1 = HDAC1 (Homo sapiens (Human), UniProt Q13547); test: HDAC inhibition assay, HDAC1; assay type: biochemical
HDAC6 = HDAC6 (Homo sapiens (Human), UniProt Q9UBN7); test: HDAC inhibition assay, HDAC6; assay type: biochemical
Sequence of HDAC6 (Q9UBN7 whole entry): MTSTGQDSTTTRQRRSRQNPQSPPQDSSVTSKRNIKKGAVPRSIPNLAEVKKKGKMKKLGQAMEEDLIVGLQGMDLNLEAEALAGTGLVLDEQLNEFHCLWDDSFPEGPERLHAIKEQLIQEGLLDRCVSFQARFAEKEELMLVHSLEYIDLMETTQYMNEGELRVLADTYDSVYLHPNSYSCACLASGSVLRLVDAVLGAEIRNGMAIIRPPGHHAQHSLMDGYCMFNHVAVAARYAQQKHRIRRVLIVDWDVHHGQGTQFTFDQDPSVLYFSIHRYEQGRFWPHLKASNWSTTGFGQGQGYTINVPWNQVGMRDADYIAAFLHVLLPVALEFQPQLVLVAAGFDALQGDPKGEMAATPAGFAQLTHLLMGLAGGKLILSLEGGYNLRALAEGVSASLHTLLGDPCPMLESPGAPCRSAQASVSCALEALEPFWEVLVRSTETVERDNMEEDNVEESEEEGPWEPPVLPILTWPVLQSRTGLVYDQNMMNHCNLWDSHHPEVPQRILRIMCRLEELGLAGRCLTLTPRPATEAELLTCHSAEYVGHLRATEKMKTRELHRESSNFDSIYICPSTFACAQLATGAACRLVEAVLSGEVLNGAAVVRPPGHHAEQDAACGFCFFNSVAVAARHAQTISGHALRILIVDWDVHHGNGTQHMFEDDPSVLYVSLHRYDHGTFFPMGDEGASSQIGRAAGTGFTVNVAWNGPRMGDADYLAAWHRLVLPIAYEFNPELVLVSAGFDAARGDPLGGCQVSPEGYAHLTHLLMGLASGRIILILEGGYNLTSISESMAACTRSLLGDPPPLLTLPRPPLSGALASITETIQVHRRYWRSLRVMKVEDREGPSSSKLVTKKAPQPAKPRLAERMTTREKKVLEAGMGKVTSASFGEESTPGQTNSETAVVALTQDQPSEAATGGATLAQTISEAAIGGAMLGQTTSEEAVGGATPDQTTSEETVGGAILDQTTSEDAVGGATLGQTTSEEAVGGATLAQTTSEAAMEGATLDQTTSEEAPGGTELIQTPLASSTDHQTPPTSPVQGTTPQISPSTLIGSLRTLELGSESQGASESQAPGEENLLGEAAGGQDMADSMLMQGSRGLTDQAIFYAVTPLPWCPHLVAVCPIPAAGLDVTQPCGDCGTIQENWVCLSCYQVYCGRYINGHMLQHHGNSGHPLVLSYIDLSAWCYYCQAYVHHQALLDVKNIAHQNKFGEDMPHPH

[1] = system: acetyl-tubulin and acetyl-histone3 in human melanoma cell lines; test: Western blot of HDAC substrate acetylation in human melanoma cell lines; assay type: cell-based; details: for acetyl-tubulin and acetylation status of Histone 3: WM795 cells, 24 hrs, FIG. 47
Experimental: To confirm the selectivity of isotype specific HDACi, Western blot analysis was performed on the acetylation status of known HDAC substrates including histone H3 and H4, which are known Class I HDAC targets, and α-tubulin, a target for HDAC6. The doses required to impart the anti-proliferative effect coincided with that needed to increase acetylation of the respective HDAC substrates (FIG. 41F-41H). […] Conversely, HDAC6 selective inhibitors (HDAC6i) increase α-tubulin acetylation but not histone acetylation (FIG. 41F).

[2] = system: HuT-78, murine MCL, B16 and SM1 cells; test: Cell viability of cancer cells (CellTiter 96 Aqueous ONE); assay type: cell-based, human and murine; details: 24 hrs, compared to DMSO
Experimental: Human cutaneous T-cell lymphoma (CTCL) HuT-78 (A), murine mantle cell lymphoma (MCL) (B), and murine melanoma B16 (C) and SM1 (D) cells were incubated with JB7-19, JB7-22, JB720 at different concentrations for 24 hrs. Cell viability was measured using CellTiter 96 Aqueous ONE solution (Promega, Madison, Wis.) and compared to DMSO treated control samples. Error bars represent standard deviation from triplicates.

[3] = system: IL-10 production in PEM and RAW264.7 cells; test: IL-10 production in antigen presenting cells (ELISA); assay type: cell-based, murine; details: 24 hrs
Experimental: Murine peritoneal elicited primary macrophages (PEM)(A) and murine RAW264.7 (B) cells were incubated with JB7-19, JB7-22, JB720 at the concentration indicated on each chart. After 24 hrs, the production of IL-10 was measured by ELISA.

B16 WT melanoma = test: In vivo B16 melanoma tumor growth in SCID mice
From the text: To further characterize the relative contribution of anti-tumor immunity, specific subsets of cells were depleted via antibody depletion, which was confirmed by staining leukocytes from spleen. […] Taken together, these observations support the anti-melanoma activity of a functional immune system after HDAC6 inhibition.

[4] = system: NRAS and BRAF mutant human melanoma cell lines; test: Cell proliferation of human melanoma cell lines (MTS, 24 h); assay type: cell-based
Experimental: Cell proliferation was evaluated using various pan- and isotype selective HDACi in a broad panel of human melanoma cell lines. Briefly, cells were plated at 10×10^3/well in a 96 well flat bottom plate. The following day, media was changed to that containing different concentrations of HDACi or matched DMSO vehicle concentrations diluted in complete medium done in triplicate, all with a final concentration of less than 0.1% DMSO. Cells were incubated for 24 hours at 37° C. and 5% CO2. […] All values were then normalized and expressed as a percentage of medium control growth.

[5] = system: human melanoma cell lines; test: Cell cycle analysis by propidium iodide staining; assay type: cell-based; details: FACS
Experimental: Cells were treated with indicated doses of HDAC inhibitors or DMSO control and then trypsinized, washed, and rendered into a single cell suspension in 1 mL of DPBS. 4 mL ice cold 200 proof ethyl alcohol was added dropwise while vortexing to fix cells. Samples were washed and resuspended in 75% ethanol solution overnight. Then, cells were washed in PBS+0.1% Triton X-100 and counted. Equal numbers of cells were then stained in a solution containing 10 μg/mL RNAseA+1 μg/mL propidium iodide for 2 hours at room temperature. Data was then acquired using a FACSCaliber with at least 10,000 events collected. Cell cycle analysis was completed using ModFit LT (Verity Software House, Topsham, Me.).

[6] = system: B16 murine melanoma cells; test: B16 melanoma cell growth inhibition assay (MTS); assay type: cell-based; details: 48 h
Experimental: B16 murine melanoma cells were plated at 5×10^3/well in 96 well flat bottom plates. The following day, media was changed to that containing various concentrations of HDACi or matched DMSO vehicle concentrations diluted in complete medium done in triplicate. […] Briefly, 20 μL of reagent were added per well and incubated at 37° C. for 3 hours.

[7] = system: acetyl-α-tubulin and acetyl-H3 in B16 melanoma cells; test: Tubulin and histone acetylation Western blot assay; assay type: cell-based, murine
Experimental: […]. B16 melanoma cells were plated at 10^5 cells/well in 12 well plates and allowed to adhere overnight. A 50 mM stock of compound was then added by serial dilutions in complete medium to the indicated concentrations. Cells were incubated for 24 h under humidified conditions (37° C., 5% CO2). Wells were then washed with cold PBS, and cells were lysed in a buffer containing 10 mM Tris-HCl pH 8.0, 10% SDS, […], 100 mM DTT, and 1× protease inhibitor (Roche). Cells were lysed for 30 min on ice and then sonicated for 8 min (8 cycles of 30 s on/30 s rest). Cells were then boiled for 10 min with 6× gel loading buffer and resolved on 4-15% gradient gels and subsequently transferred onto nitrocellulose membranes. Membranes were blocked with 5% milk in PBS-T and detection of specific antigens using antibodies against acetyl-H3 and H3 (Cell Signaling), and acetyl-α-tubulin and α-tubulin (Sigma). Bands were detected by scanning blots with LI-COR Odyssey imaging system using both 700 and 800 channels.

B16 melanoma = test: In vivo B16 melanoma tumor growth in C57BL/6 mice; details: for Tumor growth: 25 mg/kg, intraperitoneal, three times weekly
[8] = system: melanoma antigens gp100, MART1, TYRP1 and TYRP2; test: Expression of tumor antigens in human melanoma cells (qRT-PCR); assay type: cell-based; details: 48 hours
Experimental: (D) Expression of tumor antigens was measured in human WM164 non-target and HDAC6KD cells. (E) Expression of tumor antigens mart-1 and gp-100 was measured by western blot.

[9] = system: MHC expression on melanoma cells; test: Surface marker analysis of melanoma cells by flow cytometry; assay type: cell-based, human and murine; details: 3 μM, 48 hours, B16 and WM793
Experimental: For surface marker analysis melanoma cells were treated with TubastatinA or DMSO for 48 hrs, and/or using Non target and HDAC6KD cell lines, Cells were singly stained with phycoerythryn (PE) conjugated antibodies against MHC I, MHC II, CD40, CD80, CD86. Conjugated antibodies were purchases from eBioscience (San Diego, Calif., USA). After staining for 30 minutes at 4° C., cells were washed three times and then resuspended in buffer containing DAPI (50 ng/mL) for viability. At least 10,000 events were collected using an LSR II (BD) and subsequently analyzed using FlowJo software.2.2.7.

[10] = system: JAK2/STAT3 phosphorylation in B16 murine melanoma cells; test: JAK2/STAT3 phosphorylation in B16 melanoma in vivo
macrophages = test: Tubastatin A treatment of macrophages (APCs) in vitro; assay type: cell-based
antigen-specific T-cells = test: In vivo antigen-specific T-cell response to vaccination; design: species or system mice; details: in vivo treatment
[11] = system: STAT3 phosphorylation in APCs; test: STAT3 phosphorylation and recruitment to the IL-10 gene promotor in APCs; assay type: cell-based
MCL = test: In vivo treatment of MCL-bearing mice
[12] = Table 1B, read-out: IC50 (μM) HDAC1
[13] = Table 1B, read-out: IC50 (μM) HDAC6
[14] = Table 2, cyclic urea compounds, read-out: HDAC1 IC50
[15] = Table 2, cyclic urea compounds, read-out: HDAC6 IC50

Sequence of HDAC1 (Q13547 whole entry): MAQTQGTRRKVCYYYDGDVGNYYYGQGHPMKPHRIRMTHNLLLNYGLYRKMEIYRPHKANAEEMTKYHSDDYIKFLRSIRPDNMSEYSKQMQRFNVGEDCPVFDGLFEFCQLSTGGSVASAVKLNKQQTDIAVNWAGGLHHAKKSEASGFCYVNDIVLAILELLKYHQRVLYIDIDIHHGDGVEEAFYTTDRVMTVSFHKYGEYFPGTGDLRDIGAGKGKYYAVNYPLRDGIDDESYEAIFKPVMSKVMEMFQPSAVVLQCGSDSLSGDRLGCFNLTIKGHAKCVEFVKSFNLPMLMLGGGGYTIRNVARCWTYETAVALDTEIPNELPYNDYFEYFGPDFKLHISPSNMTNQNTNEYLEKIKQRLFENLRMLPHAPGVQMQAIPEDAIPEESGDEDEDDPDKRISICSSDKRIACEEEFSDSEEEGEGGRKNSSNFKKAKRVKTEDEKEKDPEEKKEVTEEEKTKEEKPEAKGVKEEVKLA

Molecule: CCCCN(Cc1ccc(C(=O)NO)cc1)C(=O)Nc1ncccn1 [JB6-22, 4-((1-butyl-3-(pyrimidin-2-yl)ureido)methyl)-N-hydroxybenzamide]
- IC50 (HDAC1; [12]): 2.74 µM
- Selectivity (HDAC1/−6) (HDAC6; Table 1B): 281
- IC50 (HDAC6; [13]): 0.00976 µM
- acetyl-tubulin and acetylation status of Histone 3 [1]: increase acetyl-tubulin without modifying the acetylation status of Histone 3
- Cell proliferation of cancer cells [2]: decrease cell proliferation
- IL-10 production in antigen presenting cells [3]: inhibit IL-10 production

Molecule: COc1ccccc1N1C(=O)N(Cc2ccc(C(=O)NO)cc2)C(C)(C)C1=O [Compound 10a]
- IC50 (HDAC1; [14]): 28.6 µM
- Fold Selective (HDAC1/HDAC6) (HDAC6; Table 2, cyclic urea compounds): 386 fold
- IC50 (HDAC6; [15]): 0.0742 µM

Molecule: Nexturastat B
- In vivo growth of B16 WT melanoma compared with control treatment (B16 WT melanoma): not significantly different

Molecule: Nc1ccccc1NC(=O)c1ccc(CNc2nccc(-c3cccnc3)n2)cc1 [MGCD0103]
- Inhibition of proliferation, effective concentration range (in words) [4]: low micromolar range
- acetylation of α-tubulin ([1]; Western blot, FIG. 41): unchanged
- Cell cycle effects [5]: variable cell cycle effects

Molecule: COCCCN(Cc1ccc(C(=O)NO)cc1)C(=O)Nc1ccccc1 [Compound 5e, N-hydroxy-4-((1-(3-methoxypropyl)-3-phenylureido)methyl)benzamide]
- Fold Selective (HDAC1/HDAC6) (HDAC6; Table 1A): > 400 fold

Molecule: O=C(NO)c1ccc(CN2C(=O)N[C@@H](Cc3ccccc3)C2=O)cc1 [Compound 11a]
- IC50 (HDAC1; [14]): 7.56 µM
- Fold Selective (HDAC1/HDAC6) (HDAC6; Table 2, cyclic urea compounds): 295 fold
- IC50 (HDAC6; [15]): 0.0256 µM

Molecule: O=C(NO)c1ccc(CN(CCc2ccccc2)C(=O)Nc2ccccc2)cc1 [Compound 5h, N-hydroxy-4-((1-phenethyl-3-phenylureido)methyl)benzamide]
- Growth inhibition of B16 melanoma cells (in words) [6]: capable of inhibiting the growth

Molecule: CCCCN(Cc1ccc(C(=O)NO)cc1)C(=O)Nc1ccccc1 [Compound 5g, 4-((1-butyl-3-phenylureido)methyl)-N-hydroxybenzamide]
- Growth inhibition of B16 melanoma cells (in words) [6]: capable of inhibiting the growth
- histone H3 acetylation ([7]; concentrations of 1 and 10 μM): observable increase
- acetyl α-tubulin levels ([7]; low nanomolar treatment, 24 h): dose-dependant increase
- histone H3 acetylation ([7]; low nanomolar treatment, 24 h): without a concamanent elevation
- acetyl-tubulin and acetylation status of Histone 3 [1]: increase acetyl-tubulin without modifying the acetylation status of Histone 3
- Tumor growth (B16 melanoma): delayed tumor growth
- Expression of melanoma antigens at the mRNA level [8]: upregulation of melanoma antigens

Molecule: COc1ccccc1NC(=O)N(CCCO)Cc1ccc(C(=O)NO)cc1 [Compound 5b, N-hydroxy-4-((1-(3-hydroxypropyl)-3-(2-methoxyphenyl)ureido)methyl)-benzamide]
- Growth inhibition of B16 melanoma cells (in words) [6]: performed very poorly

Molecule: CN1CCc2c(c3ccccc3n2Cc2ccc(C(=O)NO)cc2)C1 [Tubastatin A]
- Inhibition of proliferation, effective concentration range (in words) [4]: low micromolar range
- acetyl-tubulin and acetylation status of Histone 3 [1]: increase acetyl-tubulin without modifying the acetylation status of Histone 3
- Expression of MHC I [9]: increase of MHC1
- Tumor growth (B16 melanoma): delayed tumor growth
- Anti-melanoma effect in vivo (B16 melanoma; alone or in combination with anti-CLTA4): anti-melanoma effect
- JAK2/STAT3 phosphorylation [10]: inhibits JAK2/STAT3 phosphorylation
- T-cell activation by treated macrophages (macrophages; in vitro): better activators of naIve T-cells
- Expression of co-stimulatory molecules (macrophages; macrophages): increased the expression of co-stimulatory molecules
- IL-10 production (macrophages; macrophages): inhibits IL-10 production
- Antigen-specific T-cell responses to vaccination (antigen-specific T-cells): enhances antigen-specific T-cell responses
- STAT3 phosphorylation [11]: decreased STAT3 phosphorylation
- Antitumor effect (MCL): strong antitumor effect
- Expression of melanoma antigens at the mRNA level [8]: upregulation of melanoma antigens

Molecule: CCCCN(Cc1ccc(C(=O)NO)cc1)C(=O)Nc1ccc2cn[nH]c2c1 [JB7-19, 4-((1-butyl-3-(1H-indazol-6-yl)ureido)methyl)-N-hydroxybenzamide]
- IC50 (HDAC1; [12]): 0.721 µM
- Selectivity (HDAC1/−6) (HDAC6; Table 1B): 284
- IC50 (HDAC6; [13]): 0.00254 µM
- acetyl-tubulin and acetylation status of Histone 3 [1]: increase acetyl-tubulin without modifying the acetylation status of Histone 3
- Cell proliferation of cancer cells [2]: decrease cell proliferation
- IL-10 production in antigen presenting cells [3]: inhibit IL-10 production

Molecule: CC(C)[C@@H]1C(=O)N(c2ccccc2)C(=O)N1Cc1ccc(C(=O)NO)cc1 [Compound 10b]
- IC50 (HDAC1; [14]): 11.8 µM
- Fold Selective (HDAC1/HDAC6) (HDAC6; Table 2, cyclic urea compounds): 531 fold
- IC50 (HDAC6; [15]): 0.0222 µM

Molecule: CCCCN(Cc1ccc(C(=O)NO)cc1)C(=O)Nc1cccc(N(C)C)c1 [JB7-20]
- Selectivity (HDAC1/−6) (HDAC6; Table 1B): 99

Molecule: COc1ccccc1NC(=O)NCc1ccc(C(N)=O)cc1 [Compound 1]
- IC50 (HDAC1; Table 1A, mean of two experiments ± standard deviation, read-out: HDAC1 IC50): 0.265 ± 0.059 µM
- IC50 (HDAC6; Table 1A, mean of two experiments ± standard deviation, read-out: HDAC6 IC50): 0.139 ± 0.027 µM
